Assay results reported in PubChem BioAssay AID651650 (Sanford-Burnham Center for Chemical Genomics, 2012).
pIC50: −log10 of the molar value. Calls of active or inactive are those of the source.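 Rule for the calls: active = mean IC50 below 20 µM in each of the two panels, so potent in both; inactive = the rest.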

Biological target: Neuropilin-1 (Homo sapiens) (UniProt O14786)
Assay: blockers of CendR peptide binding to NRP-1 – biochemical, FP and AlphaScreen panel, dose response (AID 651650)
Conditions: NRP-1 b1b2 / RPARPAR peptide binding, FP or AlphaScreen
[1] = AlphaScreen, run 1, individual panel run IC50
[2] = FP, run 1, individual panel run IC50
[3] = FP, run 2, individual panel run IC50

Sequence of Neuropilin-1 (Homo sapiens) (O14786 whole entry, looked up): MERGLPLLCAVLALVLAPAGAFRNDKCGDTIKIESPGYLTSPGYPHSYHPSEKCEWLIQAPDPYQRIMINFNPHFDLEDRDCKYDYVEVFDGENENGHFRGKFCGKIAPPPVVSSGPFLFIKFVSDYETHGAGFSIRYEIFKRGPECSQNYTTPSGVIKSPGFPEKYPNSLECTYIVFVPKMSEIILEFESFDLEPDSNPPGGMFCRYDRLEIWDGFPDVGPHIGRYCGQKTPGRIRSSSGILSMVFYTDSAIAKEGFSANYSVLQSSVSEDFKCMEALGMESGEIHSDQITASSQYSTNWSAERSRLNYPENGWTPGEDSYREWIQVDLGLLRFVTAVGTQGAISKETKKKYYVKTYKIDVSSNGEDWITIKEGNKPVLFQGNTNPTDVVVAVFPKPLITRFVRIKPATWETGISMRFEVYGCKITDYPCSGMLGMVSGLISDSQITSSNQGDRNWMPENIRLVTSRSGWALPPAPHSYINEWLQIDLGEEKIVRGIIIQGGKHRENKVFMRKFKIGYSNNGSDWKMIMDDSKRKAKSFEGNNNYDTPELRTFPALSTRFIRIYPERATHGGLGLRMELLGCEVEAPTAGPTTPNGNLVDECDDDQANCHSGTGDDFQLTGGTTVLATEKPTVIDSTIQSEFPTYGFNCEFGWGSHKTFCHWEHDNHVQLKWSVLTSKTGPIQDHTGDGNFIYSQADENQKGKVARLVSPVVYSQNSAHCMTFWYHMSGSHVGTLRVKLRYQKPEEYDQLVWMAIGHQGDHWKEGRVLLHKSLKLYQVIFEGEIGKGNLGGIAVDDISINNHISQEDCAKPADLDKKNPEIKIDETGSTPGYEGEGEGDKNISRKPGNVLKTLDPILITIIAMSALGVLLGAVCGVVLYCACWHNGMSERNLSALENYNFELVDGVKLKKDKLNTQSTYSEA

CN(C)/N=C/c1ccc(Sc2ccc([N+](=O)[O-])cc2[N+](=O)[O-])o1
IC50 (AlphaScreen, mean of runs): inactive | pIC50 [1]: 4.07 | IC50 (FP, mean of runs): > 95 µM (inactive) | pIC50 [2]: < 4.02 | pIC50 [3]: < 4.02

CCCCCCCN1C(Nc2ccccc2)=NC[C@@H]1Cc1ccccc1
IC50 (AlphaScreen, mean of runs): > 100 µM (inactive) | pIC50 [1]: < 4.00 | IC50 (FP, mean of runs): > 95 µM (inactive) | pIC50 [2]: < 4.02 | pIC50 [3]: < 4.02

CN(C)Cc1cc(C(F)(F)F)ccc1C(O)(c1ccccc1)c1ccccc1
IC50 (AlphaScreen, mean of runs): > 100 µM (inactive) | pIC50 [1]: < 4.00 | IC50 (FP, mean of runs): > 95 µM (inactive) | pIC50 [2]: < 4.02 | pIC50 [3]: < 4.02

COC(=O)C1=C(c2ccc(F)cc2OCc2ccccc2)C[C@@H]2CC[C@H]1N2C(=O)NCCNC(C)=O
pIC50 (AlphaScreen, mean of runs): 5.03 | pIC50 [1]: 5.03 | IC50 (FP, mean of runs): > 95 µM (inactive) | pIC50 [2]: < 4.02 | pIC50 [3]: < 4.02

COCCNC(=S)N(CCc1c(C)[nH]c2ccc(F)cc12)Cc1cccs1
IC50 (AlphaScreen, mean of runs): > 100 µM (inactive) | pIC50 [1]: < 4.00 | IC50 (FP, mean of runs): > 95 µM (inactive) | pIC50 [2]: < 4.02 | pIC50 [3]: < 4.02

CCCCN(c1ccccc1)S(=O)(=O)c1ccc2c(c1)CCN2C(=O)CCC(=O)O
IC50 (AlphaScreen, mean of runs): > 100 µM (inactive) | pIC50 [1]: < 4.00 | IC50 (FP, mean of runs): > 95 µM (inactive) | pIC50 [2]: < 4.02 | pIC50 [3]: < 4.02

CC(C(=O)N1CCN(c2ccc(Cl)cc2)CC1)c1ncc(C(F)(F)F)cc1Cl (stereo not given)
IC50 (AlphaScreen, mean of runs): > 100 µM (inactive) | pIC50 [1]: < 4.00 | IC50 (FP, mean of runs): > 95 µM (inactive) | pIC50 [2]: < 4.02 | pIC50 [3]: < 4.02

CC(C)C(N)c1csc(NC(=O)Nc2cccc(C(F)(F)F)c2)n1 (stereo not given)
IC50 (AlphaScreen, mean of runs): > 100 µM (inactive) | pIC50 [1]: < 4.00 | IC50 (FP, mean of runs): > 95 µM (inactive) | pIC50 [2]: < 4.02 | pIC50 [3]: < 4.02

Fc1cnc(N2CCOCC2)nc1N1CCOCC1
IC50 (AlphaScreen, mean of runs): > 100 µM (inactive) | pIC50 [1]: < 4.00 | IC50 (FP, mean of runs): > 95 µM (inactive) | pIC50 [2]: < 4.02 | pIC50 [3]: < 4.02

O=C(O)c1ccccc1SCC(=O)N1CCCCC1
IC50 (AlphaScreen, mean of runs): > 100 µM (inactive) | pIC50 [1]: < 4.00 | IC50 (FP, mean of runs): > 95 µM (inactive) | pIC50 [2]: < 4.02 | pIC50 [3]: < 4.02

CNC(=O)Nc1ccccc1C(=O)NCc1ccccc1
IC50 (AlphaScreen, mean of runs): > 100 µM (inactive) | pIC50 [1]: < 4.00 | IC50 (FP, mean of runs): > 95 µM (inactive) | pIC50 [2]: < 4.02 | pIC50 [3]: < 4.02

CC(CN1CCCCC1)OC(=O)c1ccc(Cl)cc1Cl (stereo not given)
IC50 (AlphaScreen, mean of runs): > 100 µM (inactive) | pIC50 [1]: < 4.00 | IC50 (FP, mean of runs): > 95 µM (inactive) | pIC50 [2]: < 4.02 | pIC50 [3]: < 4.02

CCNS(=O)(=O)c1ccc(CCC(=O)O)cc1
IC50 (AlphaScreen, mean of runs): > 100 µM (inactive) | pIC50 [1]: < 4.00 | IC50 (FP, mean of runs): > 95 µM (inactive) | pIC50 [2]: < 4.02 | pIC50 [3]: < 4.02

O=C(OCn1nnc2ccccc2c1=O)c1ccc(Br)o1
IC50 (AlphaScreen, mean of runs): > 100 µM (inactive) | pIC50 [1]: < 4.00 | IC50 (FP, mean of runs): > 95 µM (inactive) | pIC50 [2]: < 4.02 | pIC50 [3]: < 4.02

Cc1ccc(OCC(=O)Nc2ccc(C)c(S(=O)(=O)N3CCCCCC3)c2)c([N+](=O)[O-])n1
IC50 (AlphaScreen, mean of runs): > 100 µM (inactive) | pIC50 [1]: < 4.00 | IC50 (FP, mean of runs): > 95 µM (inactive) | pIC50 [2]: < 4.02 | pIC50 [3]: < 4.02

CN(C)/C=C/c1c([N+](=O)[O-])c2ccc(O)cc2n1-c1ccccc1
IC50 (AlphaScreen, mean of runs): > 100 µM (inactive) | pIC50 [1]: < 4.00 | IC50 (FP, mean of runs): > 95 µM (inactive) | pIC50 [2]: < 4.02 | pIC50 [3]: < 4.02

O=C(CSc1nc2ccc(Cl)cc2[nH]1)NCCc1ccccc1
IC50 (AlphaScreen, mean of runs): > 100 µM (inactive) | pIC50 [1]: < 4.00 | IC50 (FP, mean of runs): > 95 µM (inactive) | pIC50 [2]: < 4.02 | pIC50 [3]: < 4.02

NC(=O)CC[C@H](NC(=O)c1ccc(F)cc1)C(=O)N1CCN(Cc2ccc3c(c2)OCO3)CC1
IC50 (AlphaScreen, mean of runs): > 100 µM (inactive) | pIC50 [1]: < 4.00 | IC50 (FP, mean of runs): > 95 µM (inactive) | pIC50 [2]: < 4.02 | pIC50 [3]: < 4.02
